Source: US7972611B2, “Fungus-induced inflammation and eosinophil degranulation” (Mayo Foundation for Medical Education and Research, priority 2005, dated 2011)
Like-named read-outs stand apart in the source and are kept apart here.

Columns and labels:
eosinophils = type: cell-based, human; conditions: for eosinophil degranulation (EDN release) induced by Alternaria extract: 3 hours at 37° C.
Protocol: FIG. 9. […] Alternaria extract, trypsin, or PMA was pretreated with pepstatin A agarose, control agarose, or APMSF, and added to the PAR-2 peptide substrate (Panel A) or eosinophils (Panel B).
(§1) To monitor eosinophil function in response to extracts from Alternaria, degranulation of human eosinophils was measured by quantitating released eosinophil-derived neurotoxin (EDN) and/or MBP. In brief, freshly isolated eosinophils were suspended in HBSS with 25 mM HEPES and 0.01% gelatin at 5×10^5 cells/mL. Eosinophils and stimuli were incubated in 96-well tissue culture plates for 3 hours at 37° C. and 5% CO^2. Cell-free supernatants were stored at −20° C. A specific RIA quantitated eosinophil degranulation by measuring the concentration of EDN in the supernatants.

BEAS-2B cells = experiment: Cytokine production by BEAS-2B airway epithelial cells; type: cell-based, human
Protocol: FIG. 10. Effects of fungi on IL-6 production by BEAS-2B cells. BEAS-2B cells were incubated with culture extracts of various fungi for 24 hours. IL-6 concentrations in the supernatants were measured by ELISA. *, p<0.05 compared to medium alone, n=3.
FIG. 11. Effects of an aspartate protease inhibitor, ritonavir, on IL-8 production by BEAS-2B cells. Alternaria extract or TNF-α was pretreated with ritonavir and added to BEAS-2B cells. IL-8 concentrations in the supernatants were measured after 24 hours. Data are normalized to the values without ritonavir as 100%. *, p<0.05 compared to no inhibitor, n=4.
Eosinophils may be the only cell that can recognize Alternaria. […] BEAS-2B stimulated with Alternaria also produced other pro-inflammatory factors such as IL-8 and GM-CSF. This Alternaria-induced IL-6 production was inhibited by ATBI, nelfinavir, ritonavir or pepstatin A-agarose treatment of Alternaria extract by about 60% to 90%; ritonavir results are shown in FIG. 11. In contrast, TNF-α-induced IL-6 production was not affected by these treatments. […] Thus, through its aspartate protease activity, Alternaria may activate airway epithelial cells; this activation is partially mediated by PAR-2.

[1] = test system: aspartate protease(s) in Alternaria extract; experiment: Inhibition of PAR-2 cleavage activity of Alternaria extract; type: biochemical; conditions: extract pretreated with inhibitor
Excerpt: (§2) FIG. 9. Effects of protease inhibitors on PAR-2 cleavage activity (Panel A) and EDN release activity (Panel B) of Alternaria extract. Alternaria extract, trypsin, or PMA was pretreated with pepstatin A agarose, control agarose, or APMSF, and added to the PAR-2 peptide substrate (Panel A) or eosinophils (Panel B). In Panel B, *, p<0.05 compared to no inhibitors, n=4.
(§3) A fluorescent quenched peptide substrate (Abz-SKGRSLIGK(Dnp)D) (SEQ ID NO:37), which spans the trypsin-cleavage site (between R and S) of PAR-2 was synthesized, and used it in an in vitro assay for PAR-2 cleavage and activation. […] Alternaria's activity was abolished when aspartate protease(s) was removed from the extract by pepstatin A agarose (FIG. 9); pepstatin A is a highly specific inhibitor for aspartate protease. […] Thus, an aspartate protease(s) in Alternaria extract, but not a serine protease(s), may be involved in the activation of eosinophils through PAR-2. this observation was confirmed by using other aspartate protease inhibitors, including alkalo-thermophilic bacillus inhibitor (ATBI), nelfinavir, and ritonavir.

trypsin = experiment: Inhibition of trypsin cleavage of PAR-2 peptide substrate; type: biochemical
Excerpt: as §2, §3

PAR-2 = target: T1, PAR-2 (Homo sapiens, UniProt P55085); experiment: Eosinophil calcium response to Alternaria extract after preincubation with PAR-2 peptides; type: cell-based; conditions: preincubation with peptide, 100 μM
T1 construct: endogenous in cells; host or cells: isolated human blood eosinophils
T1 sequence (P55085 26-397): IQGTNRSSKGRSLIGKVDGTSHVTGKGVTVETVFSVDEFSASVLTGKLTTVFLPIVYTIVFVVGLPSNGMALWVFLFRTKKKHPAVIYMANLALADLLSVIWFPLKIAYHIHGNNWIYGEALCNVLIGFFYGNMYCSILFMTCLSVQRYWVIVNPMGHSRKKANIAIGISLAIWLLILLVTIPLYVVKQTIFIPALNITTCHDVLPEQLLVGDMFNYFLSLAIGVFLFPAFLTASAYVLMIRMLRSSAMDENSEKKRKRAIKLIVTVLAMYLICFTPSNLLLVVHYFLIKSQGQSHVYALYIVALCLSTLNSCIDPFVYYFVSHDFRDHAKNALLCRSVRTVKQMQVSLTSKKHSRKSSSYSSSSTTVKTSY
Protocol: FIG. 8. Desensitization of eosinophil calcium response (Panel A) and EDN release (Panel B) by PAR-2 peptides. Cells were preincubated with PAR-2 agonist (SLIGKV; SEQ ID NO:38), PAR-2 antagonist (LSIGKV; SEQ ID NO:35) or control peptide (GLIVKS; SEQ ID NO:36) (all at 100 μM) before stimulation with Alternaria extract (Panel A) or with Alternaria extract, PAF or PMA (Panel B).
The majority of previous studies in anti-fungal immune responses used the following models: animal infection in in vivo systems (e.g., Candida albicans, Aspergillus fumigatus), or entire fungal hyphae or conidia (e.g., C. albicans, A. fumigatus), a yeast model (e.g., zymosan), and isolated fungal carbohydrate macromolecules (e.g., β-glucan, mannan) in in vitro systems. These studies pointed to roles for TLRs, in particular TLR2 and TLR4, and to other pattern recognition receptors that immune cells, such as macrophages and neutrophils, use to recognize fungi. Because eosinophils express little TLR2 or TLR4 and the active component(s) in Alternaria extract was a heat-labile molecule(s) with an approximate 30-50 kDa molecular mass (FIG. 6), it was speculated that an Alternaria-derived protease(s) (not carbohydrates), interacting with eosinophil PAR-2, may be involved in the eosinophils' responses to Alternaria. Sine no specific small molecule inhibitor for PAR-2 is available, a desensitization approach was used. […] In contrast, degranulation induced by PAF or PMA was not affected by the LSIGKV (SEQ ID NP:35) peptide. Thus, PAR-2 is likely involved in the eosinophils' calcium and degranulation responses to Alternaria extract.

patients with CRS [2] = experiment: Randomized, placebo-controlled, double-blind trial of intranasal amphotericin B in CRS patients; type: in vivo, human; conditions: 6 months
Protocol: Second, to address the efficacy of intranasal antifungal agents more objectively, a randomized, placebo-controlled, double-blind, single center trial was performed to treat 30 randomly selected CRS patients. Patients instilled 20 mL amphotericin B (250 μg/mL) or placebo to each nostril twice daily for 6 months. Twenty-four patients completed the 6 months of treatment. […] The changes in the endoscopic scores improved in the amphotericin B group compared to placebo (p=0.038). […] Some patients responded well to the treatment, but others not as well. Thus, fungi may be important in the development of CRS in certain patients.

patients with CRS [3] = experiment: Open-label pilot trial of intranasal amphotericin B in CRS patients
Protocol: To examine the clinical significance of fungal colonization in CRS, two clinical trials were performed to examine the efficacy of anti-fungal agents. It was hypothesized that anti-fungal agents will reduce the fungal burden in the upper airways, resulting in less antigenic stimulation of immune cells, less airway inflammation, and improved clinical outcomes. […] This prospective, open-label trial used amphotericin B as a medical treatment in 51 randomly selected CRS patients. The antifungal was applied intranasally using 20 mL of a 100 μg/mL solution twice daily for a mean of 11 months (minimum of 3 months).

PBMCs = experiment: PBMC CD4+ T cell proliferation by CFSE labeling; type: cell-based, human; conditions: side-by-side experiment, day 7
human eosinophils = experiment: Eosinophil degranulation (EDN release) and activation by fungal extracts and proteins; type: cell-based; conditions: through PAR-2
Protocol: FIG. 5. Effects of fungi on eosinophil degranulation. Eosinophils were incubated with culture extracts of various fungi for 3 hours.
FIG. 21. Effects of Trichoderma xylanase on eosinophil degranulation (Panel A). Effects of Trichoderma xylanase on IL-5 production in mouse airways (Panel B). Panel A: Eosinophils were incubated with various concentrations of Trichoderma xylanase for 3 hours. EDN concentrations in the supernatants were measured by RIA as an indicator of degranulation. Panel B: Naive BALB/c mice were exposed intranasally to various doses of Trichoderma xylanase. After 12 hours, BAL fluids were collected and the concentrations of IL-5 were measured by ELISA. Mean±range, n=2.
FIG. 25. Partial characterization of Alternaria extract. A, Before incubation with eosinophils, aliquots of 100 μg/mL Alternaria and 10 ng/mL IL-5 were heated at 37, 56, or 100° C. for 30 min or were treated at 4° C. for 30 min. Eosinophils were incubated in duplicate with these treated stimuli for 3 hours at 37° C. […] The molecular weight calibration of the column is shown above the elution profile.
The following was performed to determine whether human eosinophils have an innate capacity to respond to environmental fungal organisms. Human eosinophils were incubated with extracts from common environmental airborne fungi.
as §1

[4] = test system: PAR-2 peptide substrate (Abz-SKGRSLIGK(Dnp)D); experiment: Fluorescent quenched PAR-2 peptide substrate cleavage assay; type: biochemical
Excerpt: as §2, §3

Cc1c(O)cccc1C(=O)N[C@@H](CSc1ccccc1)[C@H](O)CN1C[C@H]2CCCC[C@H]2C[C@H]1C(=O)NC(C)(C)C [nelfinavir]
eosinophil degranulation (EDN release) induced by Alternaria extract (eosinophils): confirmed | TNF-α-induced IL-6 production by BEAS-2B cells (BEAS-2B cells): not affected

alkalo-thermophilic bacillus inhibitor [ATBI]
eosinophil degranulation (EDN release) induced by Alternaria extract (eosinophils): confirmed | TNF-α-induced IL-6 production by BEAS-2B cells (BEAS-2B cells): not affected

N=C(N)c1ccc(CS(=O)(=O)F)cc1 [APMSF]
eosinophil degranulation (EDN release) induced by Alternaria extract (eosinophils): not | eosinophil degranulation (EDN release) induced by Alternaria extract (eosinophils; listed as APSF): did not inhibit | PAR-2 peptide cleavage activity of Alternaria extract [1]: insensitive | PAR-2 peptide cleavage activity of trypsin (trypsin): inhibited the activity

LSIGKV (Synthetically generated oligonucleotide) [PAR-2 antagonist]
eosinophil degranulation (EDN release) induced by Alternaria extract (eosinophils): significantly and specifically inhibited | eosinophil degranulation (EDN release) induced by Alternaria extract (eosinophils; listed as PAR2-inhibitory peptide): inhibited | eosinophil degranulation induced by PAF (eosinophils; peptide 100 μM): not affected | eosinophil degranulation induced by PMA (eosinophils; peptide 100 μM): not affected | inhibition of Alternaria-induced IL-6 production by BEAS-2B cells (BEAS-2B cells; treatment of Alternaria extract or PAR-2 antagonist): ~40% | eosinophils' calcium response to Alternaria extract (PAR-2): also inhibited

C[C@@H]1[C@H](O)[C@@H](C)/C=C/C=C/C=C/C=C/C=C/C=C/C=C/[C@H](O[C@@H]2O[C@H](C)[C@@H](O)[C@H](N)[C@@H]2O)C[C@@H]2O[C@](O)(C[C@@H](O)C[C@@H](O)[C@H](O)CC[C@@H](O)C[C@@H](O)CC(=O)O[C@H]1C)C[C@H](O)[C@H]2C(=O)O [amphotericin B]
change in intranasal mucus levels of EDN (patients with CRS [2]; increase in placebo group, p=0.046): a reduction | changes in endoscopic scores compared to placebo (patients with CRS [2]; p=0.038): improved | mucosal thickening on CT scans compared to placebo (patients with CRS [2]; 20 mL 250 μg/mL each nostril twice daily, p=0.030): reduced | no effect seen, patients (patients with CRS [3]; 13/51 patients): 25% | endoscopically disease free, patients (patients with CRS [3]; 18/51 patients): 35% | endoscopically improved by at least one stage, patients (patients with CRS [3]; additional 20/51 patients): 39% | improvement of sinusitis symptoms, patients (patients with CRS [3]; intranasal 20 mL of 100 μg/mL twice daily, mean 11 months, 38/51 patients): 75% | inflammatory mucosal thickening on CT scans pre- and post-treatment (patients with CRS [3]; n=12): significant reduction | safety of direct muco-administration (patients with CRS [3]; open-label pilot trial): safe

tetanus toxoid: tetanus toxoid
CFSElow CD4+ cells (PBMCs; CRS patient): 43.2% | CFSElow CD4+ cells (PBMCs; normal individual): 47.9%

CC(C)c1nc(CN(C)C(=O)N[C@H](C(=O)N[C@@H](Cc2ccccc2)C[C@H](O)[C@H](Cc2ccccc2)NC(=O)OCc2cncs2)C(C)C)cs1 [ritonavir]
eosinophil degranulation (EDN release) induced by Alternaria extract (eosinophils): confirmed | TNF-α-induced IL-6 production by BEAS-2B cells (BEAS-2B cells): not affected

GLIVKS (Synthetically generated oligonucleotide) [control scramble peptide]
eosinophils' calcium response to Alternaria extract (PAR-2): showed no effects

SLIGKV (Synthetically generated oligonucleotide) [PAR-2 agonistic peptide]
eosinophils' calcium response to Alternaria extract (PAR-2): significantly inhibited

B1: trypsin: serine protease, positive control (protein, UniProt P00760 24-246, looked up)
Serine protease 1: IVGGYTCGANTVPYQVSLNSGYHFCGGSLINSQWVVSAAHCYKSGIQVRLGEDNINVVEGNEQFISASKSIVHPSYNSNTLNNDIMLIKLKSAASLNSRVASISLPTSCASAGTQCLISGWGNTKSSGTSYPDVLKCLKAPILSDSSCKSAYPGQITSNMFCAGYLEGGKDSCQGDSGGPVVCSGKLQGIVSWGSGCAQKNKPGVYTKVCNYVSWIKQTIASN
activation of human eosinophils by proteases (human eosinophils): activated | cleavage of PAR-2 peptide substrate [4]: clearly cleaved
